Laboratory results as given in article PMC11432330, “Novel Drug-like HsrA Inhibitors Exhibit Potent Narrow-Spectrum Antimicrobial Activities against Helicobacter pylori” (International Journal of Molecular Sciences, 2024).

System: H. pylori 26695
Test: In vivo inhibition of HsrA: RNA-Seq transcriptomic analysis of exposed cells
Type: cell-based, Helicobacter pylori
Conditions: for log2 Fold Change: exposed to lethal concentrations vs control
Experimental: Bacterial growth from three blood agar plates of H. pylori ATCC 700392 (aka 26695) incubated for 48 h at 37 °C under microaerobic conditions was aseptically resuspended in BHI + FBS and adjusted to 10^7 CFU/mL. BHI broth cultures were incubated microaerobically at 37 °C for 24 h. […] At this time, bacterial growth was stopped by adding 1.5 mL ice-cold RNA stop solution (95% absolute ethanol, 5% acid-buffered phenol) and subsequently incubated on ice. Control samples were exposed to the same amount of DMSO instead of the inhibitor. Helicobacter cells from all samples were harvested by centrifugation (4000 rpm at 4 °C for 10 min), then the pellets were quickly frozen by immersion in liquid nitrogen and stored at −80 °C.
RNA-Seq analysis was performed by GENEWIZ (Azenta Life Sciences, Leipzig, Germany). Frozen cell pellets from two biological replicates of each treatment condition were properly submitted to GENEWIZ in dry ice. RNA-Seq libraries were prepared according to standard protocols via rRNA depletion, RNA fragmentation and random priming, reverse transcription, 5’-phosphorylation and dA-tailing of cDNAs, adaptor ligation, and PCR enrichment. Once the quality of each library was confirmed, they were sequenced on an Illumina NovaSeq 6000 (Illumina, San Diego, CA, USA) with 150-bp paired-ends. Raw sequence reads were filtered to remove possible adapter sequences and nucleotides with poor quality using Trimmomatic v.0.36 [105]. The trimmed reads were subsequently mapped to the H. pylori strain 26695 reference genome NC_000915.1 available on NCBI, by using the Bowtie2 aligner v.2.2.6 [106]. Unique gene hit counts were calculated by using featureCounts from the Subread package v.1.5.2. Only unique reads that fell within the gene regions were counted. Using DESeq2 [108], a comparison of the gene expression between the control and treated groups of samples was performed. The Wald test was used to generate p-values and log2 fold changes. Genes with an adjusted p-value < 0.05 and absolute log2 fold change >1 were considered as differentially expressed genes (DEGs) for each comparison. The RNA-Seq data generated in this study have been deposited in ArrayExpress with the accession number E-MTAB-14255.

For `NC(=NOC(=O)Nc1ccc(Cl)cc1)c1csc([N+](=O)[O-])c1` [Ligand V, N′-{[(4-chloroanilino)carbonyl]}oxy-5-nitrothiophene-3-carboximidamide], the “log2 Fold Change” value (gene HP0450) was -0.486, the “log2 Fold Change” value (gene HP0462) was -0.540 and the “log2 Fold Change HP0464” value (gene HP0464, lethal concentrations of V vs control) was 0.429. For the same compound, the “log2 Fold Change” value (gene HP0465) was -0.541, the “log2 Fold Change” value (gene HP0469) was 1.295 and the “log2 Fold Change” value (gene HP0472) was 1.301. The “log2 Fold Change HP0474” value (gene HP0474, lethal concentrations of V vs control) was 0.428, the “log2 Fold Change HP0485” value (gene HP0485, lethal concentrations of V vs control) was 0.392 and the “log2 Fold Change HP0513” value (gene HP0513, lethal concentrations of V vs control) was 0.406. The “log2 Fold Change HP0515” value (gene HP0515, lethal concentrations of V vs control) was 0.192, the “log2 Fold Change” value (gene HP0518) was -0.587 and the “log2 Fold Change HP0536” value (gene HP0536, lethal concentrations of V vs control) was 0.397. The “log2 Fold Change” value (gene HP0537) was -0.567, the “log2 Fold Change HP0540” value (gene HP0540, lethal concentrations of V vs control) was 0.190 and the “log2 Fold Change HP0546” value (gene HP0546, lethal concentrations of V vs control) was 0.161. The “log2 Fold Change” value (gene HP0555) was -0.497, the “log2 Fold Change HP0563” value (gene HP0563, lethal concentrations of V vs control) was 0.320 and the “log2 Fold Change” value (gene HP0568) was -0.470. The “log2 Fold Change HP0586” value (gene HP0586, lethal concentrations of V vs control) was 0.156, the “log2 Fold Change HP0587” value (gene HP0587, lethal concentrations of V vs control) was 0.303 and the “log2 Fold Change HP0602” value (gene HP0602, lethal concentrations of V vs control) was 0.450. For the same compound, the “log2 Fold Change” value (gene HP0608) was -0.470, the “log2 Fold Change” value (gene HP0613) was 1.327 and the “log2 Fold Change HP0639” value (gene HP0639, lethal concentrations of V vs control) was 0.172. The “log2 Fold Change HP0640” value (gene HP0640, lethal concentrations of V vs control) was 0.392, the “log2 Fold Change” value (gene HP0641) was -0.474 and the “log2 Fold Change” value (gene HP0642) was -0.561. The “log2 Fold Change” value (gene HP0648) was -0.611, the “log2 Fold Change HP0650” value (gene HP0650, lethal concentrations of V vs control) was 0.145 and the “log2 Fold Change HP0652” value (gene HP0652, lethal concentrations of V vs control) was 0.477. For the same compound, the “log2 Fold Change HP0660” value (gene HP0660, lethal concentrations of V vs control) was 0.172, the “log2 Fold Change HP0670” value (gene HP0670, lethal concentrations of V vs control) was 0.376 and the “log2 Fold Change HP0680” value (gene HP0680, lethal concentrations of V vs control) was 0.219. The “log2 Fold Change” value (gene HP0692) was 1.329, the “log2 Fold Change HP0699” value (gene HP0699, lethal concentrations of V vs control) was 0.318 and the “log2 Fold Change” value (gene HP0702) was -0.528. The “log2 Fold Change HP0709” value (gene HP0709, lethal concentrations of V vs control) was 0.245, the “log2 Fold Change” value (gene HP0734) was -0.529 and the “log2 Fold Change” value (gene HP0737) was -0.509. For the same compound, the “log2 Fold Change” value (gene HP0741) was -0.519, the “log2 Fold Change HP0742” value (gene HP0742, lethal concentrations of V vs control) was 0.440 and the “log2 Fold Change HP0748” value (gene HP0748, lethal concentrations of V vs control) was 0.146. The “log2 Fold Change HP0750” value (gene HP0750, lethal concentrations of V vs control) was 0.398, the “log2 Fold Change” value (gene HP0755) was -0.518 and the “log2 Fold Change” value (gene HP0759) was 1.350. The “log2 Fold Change HP0763” value (gene HP0763, lethal concentrations of V vs control) was 0.150, the “log2 Fold Change” value (gene HP0765) was -0.541 and the “log2 Fold Change” value (gene HP0772) was -0.471. The “log2 Fold Change HP0773” value (gene HP0773, lethal concentrations of V vs control) was 0.301, the “log2 Fold Change HP0782” value (gene HP0782, lethal concentrations of V vs control) was 0.353 and the “log2 Fold Change HP0796” value (gene HP0796, lethal concentrations of V vs control) was 0.282. For the same compound, the “log2 Fold Change HP0803” value (gene HP0803, lethal concentrations of V vs control) was 0.182, the “log2 Fold Change HP0805” value (gene HP0805, lethal concentrations of V vs control) was 0.416 and the “log2 Fold Change” value (gene HP0810) was -0.532. The “log2 Fold Change” value (gene HP0819) was -0.529, the “log2 Fold Change HP0820” value (gene HP0820, lethal concentrations of V vs control) was 0.198 and the “log2 Fold Change HP0823” value (gene HP0823, lethal concentrations of V vs control) was 0.406. For the same compound, the “log2 Fold Change HP0833” value (gene HP0833, lethal concentrations of V vs control) was 0.436, the “log2 Fold Change HP0836” value (gene HP0836, lethal concentrations of V vs control) was 0.282 and the “log2 Fold Change” value (gene HP0840) was -0.593. The “log2 Fold Change HP0858” value (gene HP0858, lethal concentrations of V vs control) was 0.348, the “log2 Fold Change” value (gene HP0861) was -0.479 and the “log2 Fold Change HP0864” value (gene HP0864, lethal concentrations of V vs control) was 0.392. The “log2 Fold Change HP0872” value (gene HP0872, lethal concentrations of V vs control) was 0.335, the “log2 Fold Change” value (gene HP0885) was -0.551 and the “log2 Fold Change HP0890” value (gene HP0890, lethal concentrations of V vs control) was 0.409. The “log2 Fold Change HP0897” value (gene HP0897, lethal concentrations of V vs control) was 0.220, the “log2 Fold Change HP0898” value (gene HP0898, lethal concentrations of V vs control) was 0.196 and the “log2 Fold Change HP0900” value (gene HP0900, lethal concentrations of V vs control) was 0.416. The “log2 Fold Change HP0909” value (gene HP0909, lethal concentrations of V vs control) was 0.281, the “log2 Fold Change” value (gene HP0916) was -0.568 and the “log2 Fold Change” value (gene HP0935) was -0.494. The “log2 Fold Change” value (gene HP0936) was -0.576, the “log2 Fold Change” value (gene HP0939) was -0.568 and the “log2 Fold Change HP0946” value (gene HP0946, lethal concentrations of V vs control) was 0.226. The “log2 Fold Change HP0948” value (gene HP0948, lethal concentrations of V vs control) was 0.237, the “log2 Fold Change HP0949” value (gene HP0949, lethal concentrations of V vs control) was 0.337 and the “log2 Fold Change” value (gene HP0953) was -0.500. The “log2 Fold Change HP0955” value (gene HP0955, lethal concentrations of V vs control) was 0.173, the “log2 Fold Change HP0963” value (gene HP0963, lethal concentrations of V vs control) was 0.462 and the “log2 Fold Change HP0976” value (gene HP0976, lethal concentrations of V vs control) was 0.322.
